In US12459974B2, “Bicyclic peptide ligands specific for Nectin-4” (priority 2018, dated 2025):
*1 amine or outer side, *2 acyl side, *3 side chain or, on linkers, in order; H or OH if unused. Where a SMILES comes first, the peptide text is derived from it. Bridges are numbered along the chain shown (N, C = ends). Roman numbers before positions name the chains, in order. [ ]: non-standard residue; d: D form. The star is where a group is joined. ξ: configuration not given here. TATA = O=C(CC[*:1])N1CN(C(=O)CC[*:2])CN(C(=O)CC[*:3])C1; Dolaproine = CO[C@@H]([C@@H]1CCCN1)[C@@H](C)C(=O)O; X1 = CC[C@H](C)C(C(CC(=O)[*:2])OC)N(C)[*:1]; 1Nal = N[C@@H](Cc1cccc2ccccc12)C(=O)O; X3 = O=C(CCCC(=O)[*:2])NCCC(=O)[*:1]; PABC = O=C(OCc1ccc(N[*:1])cc1)[*:2]; Hyp = O=C(O)[C@@H]1C[C@@H](O)CN1; hArg = N=C(N)NCCCC[C@H](N)C(=O)O; Cit = NC(=O)NCCC[C@H](N)C(=O)O; X2 = CC(N*)[C@@H](O)c1ccccc1; ξNMeV = CNC(C(=O)O)C(C)C; ξV = CC(C)C(N)C(=O)O; Sar = CNCC(=O)O

What was measured:
HT-1376 xenograft = assay: Example 9.3: in vivo efficacy in HT-1376 xenograft in CB17-SCID mice; parameters: species or system Mus Musculus; conditions: for TGI / Tumor volume (TV) / Tumor volume / T/C: day 14; for Tumor volume trace over time: mean; for Tumor volume: mean ± SEM; for T/C: treated/control group average tumor volume
MDA-MB-468 xenograft = assay: Example 9.9: in vivo efficacy of BCY8245 alone or with BCY8234 in MDA-MB-468 xenograft (large tumors) in Balb/c nude mice; parameters: species or system Mus Musculus
[1] = 3 mg/kg qw in combination with BCY8234 300 mg/kg qw, day 28

In the case of `CC[C@H](C)C(C(CC(=O)N1CCC[C@H]1[C@H](OC)[C@@H](C)C(=O)NC(C)[C@@H](O)c1ccccc1)OC)N(C)C(=O)[C@@H](NC(=O)C(C(C)C)N(C)C(=O)OCc1ccc(NC(=O)[C@H](CCCNC(N)=O)NC(=O)C(NC(=O)CCCC(=O)NCCC(=O)N(C)CC(=O)N(C)CC(=O)N(C)CC(=O)N(C)CC(=O)N(C)CC(=O)N(C)CC(=O)N(C)CC(=O)N(C)CC(=O)N(C)CC(=O)N(C)CC(=O)N[C@H]2CSCCC(=O)N3CN4CN(C3)C(=O)CCSC[C@H](NC(=O)[C@@H](CC(=O)O)NC(=O)[C@H](Cc3cccc5ccccc35)NC(=O)[C@@H]3CCCN3C2=O)C(=O)N[C@@H](CCSC)C(=O)N[C@@H](CCCCNC(=N)N)C(=O)N[C@@H](CC(=O)O)C(=O)N[C@@H](Cc2c[nH]c3ccccc23)C(=O)N[C@@H](CO)C(=O)N[C@@H]([C@@H](C)O)C(=O)N2CCC[C@H]2C(=O)N2C[C@H](O)C[C@H]2C(=O)N[C@@H](Cc2c[nH]c3ccccc23)C(=O)N[C@H](C(N)=O)CSCCC4=O)C(C)C)cc1)C(C)C` (stereo partly drawn) [BCY8245, MMAE-PABC-Cit-Val-Glutaryl-BCY8234] (I: [Sar][Sar][Sar][Sar][Sar][Sar][Sar][Sar][Sar][Sar]CP[1Nal][dD]CM[hArg]DWSTP[Hyp]WC-NH2 / II: [ξV][Cit][PABC][ξNMeV]V[X1][Dolaproine]-X2; linker I:11-I:15-I:25 via TATA; linker I:N-II:N via X3), the TGI (HT-1376 xenograft; 3 mg/kg biw) is reported as 72.3%, the “Tumor volume (TV)” value (HT-1376 xenograft; 3 mg/kg biw) is reported as 407 mm^3 and the TGI (HT-1376 xenograft; 3 mg/kg qw) is reported as 50.9%. For the same compound, the “Tumor volume (TV)” value (HT-1376 xenograft; 3 mg/kg qw) was 603 mm^3, the TGI (HT-1376 xenograft; 5 mg/kg qw) was 66.0% and the “Tumor volume (TV)” value (HT-1376 xenograft; 5 mg/kg qw) was 465 mm^3. For the same compound, the “Tumor volume trace over time” value (HT-1376 xenograft; 3 mpk, biw, iv, day 0 after the start of treatment) was 154 mm^3, the “Tumor volume trace over time” value (HT-1376 xenograft; 3 mpk, biw, iv, day 2 after the start of treatment) was 248 mm^3 and the “Tumor volume trace over time” value (HT-1376 xenograft; 3 mpk, biw, iv, day 5 after the start of treatment) was 203 mm^3. The “Tumor volume trace over time” value (HT-1376 xenograft; 3 mpk, biw, iv, day 7 after the start of treatment) was 273 mm^3, the “Tumor volume trace over time” value (HT-1376 xenograft; 3 mpk, biw, iv, day 9 after the start of treatment) was 356 mm^3 and the “Tumor volume trace over time” value (HT-1376 xenograft; 3 mpk, biw, iv, day 12 after the start of treatment) was 391 mm^3. The TGI (HT-1376 xenograft; 3 mpk, biw, iv) was 72.3%, the “Tumor volume” value (HT-1376 xenograft; 3 mpk, biw, iv) was 407 ± 53 mm^3 and the T/C (HT-1376 xenograft; 3 mpk, biw, iv) was 38.1%. The “Tumor volume trace over time” value (HT-1376 xenograft; 3 mpk, biw, iv, day 14 after the start of treatment) was 407 mm^3, the “Tumor volume trace over time” value (HT-1376 xenograft; 3 mpk, qw, iv, day 0 after the start of treatment) was 153 mm^3 and the “Tumor volume trace over time” value (HT-1376 xenograft; 3 mpk, qw, iv, day 2 after the start of treatment) was 254 mm^3. The “Tumor volume trace over time” value (HT-1376 xenograft; 3 mpk, qw, iv, day 5 after the start of treatment) was 298 mm^3, the “Tumor volume trace over time” value (HT-1376 xenograft; 3 mpk, qw, iv, day 7 after the start of treatment) was 398 mm^3 and the “Tumor volume trace over time” value (HT-1376 xenograft; 3 mpk, qw, iv, day 9 after the start of treatment) was 468 mm^3. For the same compound, the “Tumor volume trace over time” value (HT-1376 xenograft; 3 mpk, qw, iv, day 12 after the start of treatment) was 502 mm^3, the TGI (HT-1376 xenograft; 3 mpk, qw, iv) was 50.9% and the “Tumor volume” value (HT-1376 xenograft; 3 mpk, qw, iv) was 603 ± 76 mm^3. The T/C (HT-1376 xenograft; 3 mpk, qw, iv) was 56.4%, the “Tumor volume trace over time” value (HT-1376 xenograft; 3 mpk, qw, iv, day 14 after the start of treatment) was 603 mm^3 and the “Tumor volume trace over time” value (HT-1376 xenograft; 5 mpk, qw, iv, day 0 after the start of treatment) was 153 mm^3. For the same compound, the “Tumor volume trace over time” value (HT-1376 xenograft; 5 mpk, qw, iv, day 2 after the start of treatment) was 237 mm^3, the “Tumor volume trace over time” value (HT-1376 xenograft; 5 mpk, qw, iv, day 5 after the start of treatment) was 228 mm^3 and the “Tumor volume trace over time” value (HT-1376 xenograft; 5 mpk, qw, iv, day 7 after the start of treatment) was 317 mm^3. The “Tumor volume trace over time” value (HT-1376 xenograft; 5 mpk, qw, iv, day 9 after the start of treatment) was 394 mm^3, the “Tumor volume trace over time” value (HT-1376 xenograft; 5 mpk, qw, iv, day 12 after the start of treatment) was 438 mm^3 and the TGI (HT-1376 xenograft; 5 mpk, qw, iv) was 66.0%. For the same compound, the “Tumor volume” value (HT-1376 xenograft; 5 mpk, qw, iv) was 465 ± 33 mm^3, the T/C (HT-1376 xenograft; 5 mpk, qw, iv) was 43.5% and the “Tumor volume trace over time” value (HT-1376 xenograft; 5 mpk, qw, iv, day 14 after the start of treatment) was 465 mm^3. For the same compound, the TGI (MDA-MB-468 xenograft; 1 mg/kg qw, day 28) was 126.6%, the “Tumor volume (TV)” value (MDA-MB-468 xenograft; 1 mg/kg qw, day 28) was 384 mm^3 and the TGI (MDA-MB-468 xenograft; [1]) was 234.0%. For the same compound, the “Tumor volume (TV)” value (MDA-MB-468 xenograft; [1]) was 55 mm^3, the “tumor relapse (in words)” value (MDA-MB-468 xenograft; 3 mg/kg qw in combination with BCY8234 300 mg/kg qw, whole monitoring schedule) was “didn't showed any relapse” and the “tumor relapse (in words)” value (MDA-MB-468 xenograft; 3 mg/kg qw, after ceasing the treatment) was “some tumor relapse”. The TGI (MDA-MB-468 xenograft; 3 mg/kg qw, day 28) was 234.6%, the “Tumor volume (TV)” value (MDA-MB-468 xenograft; 3 mg/kg qw, day 28) was 50 mm^3 and the Tumor volume (MDA-MB-468 xenograft; 1 mpk, qw, day 0 after the start of treatment) was 466 mm^3. For the same compound, the Tumor volume (MDA-MB-468 xenograft; 1 mpk, qw, day 2) was 480 mm^3, the Tumor volume (MDA-MB-468 xenograft; 1 mpk, qw, day 5) was 453 mm^3 and the Tumor volume (MDA-MB-468 xenograft; 1 mpk, qw, day 7) was 474 mm^3. For the same compound, the Tumor volume (MDA-MB-468 xenograft; 1 mpk, qw, day 9) was 446 mm^3, the Tumor volume (MDA-MB-468 xenograft; 1 mpk, qw, day 12) was 461 mm^3 and the Tumor volume (MDA-MB-468 xenograft; 1 mpk, qw, day 14) was 460 mm^3. It also gave a Tumor volume (MDA-MB-468 xenograft; 1 mpk, qw, day 16) of 433 mm^3, a Tumor volume (MDA-MB-468 xenograft; 1 mpk, qw, day 19) of 412 mm^3 and a Tumor volume (MDA-MB-468 xenograft; 1 mpk, qw, day 21) of 430 mm^3. The Tumor volume (MDA-MB-468 xenograft; 1 mpk, qw, day 23) was 421 mm^3, the Tumor volume (MDA-MB-468 xenograft; 1 mpk, qw, day 26) was 382 mm^3 and the T/C (MDA-MB-468 xenograft; 1 mpk, qw, day 28) was 49.7%. The TGI (MDA-MB-468 xenograft; 1 mpk, qw, day 28) was 126.6%, the Tumor volume (MDA-MB-468 xenograft; 1 mpk, qw, day 28) was 384 mm^3 and the Tumor volume (MDA-MB-468 xenograft; 3 mpk, qw, day 0 after the start of treatment) was 464 mm^3. It also gave a Tumor volume (MDA-MB-468 xenograft; 3 mpk, qw, day 2) of 451 mm^3, a Tumor volume (MDA-MB-468 xenograft; 3 mpk, qw, day 5) of 388 mm^3 and a Tumor volume (MDA-MB-468 xenograft; 3 mpk, qw, day 7) of 333 mm^3. The Tumor volume (MDA-MB-468 xenograft; 3 mpk, qw, day 9) was 284 mm^3, the Tumor volume (MDA-MB-468 xenograft; 3 mpk, qw, day 12) was 168 mm^3 and the Tumor volume (MDA-MB-468 xenograft; 3 mpk, qw, day 14) was 129 mm^3. It also gave a Tumor volume (MDA-MB-468 xenograft; 3 mpk, qw, day 16) of 93 mm^3, a Tumor volume (MDA-MB-468 xenograft; 3 mpk, qw, day 19) of 83 mm^3 and a Tumor volume (MDA-MB-468 xenograft; 3 mpk, qw, day 21) of 71 mm^3. For the same compound, the Tumor volume (MDA-MB-468 xenograft; 3 mpk, qw, day 23) was 60 mm^3, the Tumor volume (MDA-MB-468 xenograft; 3 mpk, qw, day 26) was 49 mm^3 and the T/C (MDA-MB-468 xenograft; 3 mpk, qw, day 28) was 6.4%. It also gave a TGI (MDA-MB-468 xenograft; 3 mpk, qw, day 28) of 234.6%, a Tumor volume (MDA-MB-468 xenograft; 3 mpk, qw, day 28) of 50 mm^3 and a Tumor volume (MDA-MB-468 xenograft; Group1, Vehicle, dosed with 5 mpk BCY8245 on PG-D28, day 30) of 625 ± 27 mm^3. For the same compound, the Tumor volume (MDA-MB-468 xenograft; Group1, Vehicle, dosed with 5 mpk BCY8245 on PG-D28, day 33) was 477 ± 31 mm^3 and the Tumor volume (MDA-MB-468 xenograft; Group1, Vehicle, dosed with 5 mpk BCY8245 on PG-D28, day 35) was 405 ± 65 mm^3.
